The values that follow are results of earlier work, collected in US12208127B2, “Preparation and use of cannabis nano-formulation” (Apurano Pharmaceuticals GmbH, priority 2020, dated 2025).

The conditions of data set [1]: higher formation after administration.
The conditions of data set [2]: some pharmacological animal experiments.
The conditions of data set [3]: i.v. single dose 1 mg.

Like-named read-outs stand apart in the source and are kept apart here.

With `CCCCCc1cc(O)c2c(c1)OC(C)(C)[C@@H]1CCC(C)=C[C@@H]21` [dronabinol as capsule, dronabinol], the “formation of 11-OH-THC compared to THC” value in data set [1] is reported as 3 fold.

As for `CCCCCc1cc(O)c2c(c1)OC(C)(C)[C@@H]1CCC(C)=C[C@@H]21` [THC, tetrahydrocannabinol], the “average plasma clearance rate” value reads like this: (naïve THC users) “approximately 36 L/h”; (regular users) ~60 L/h.

Consider `CCCCCc1cc(O)c2c(c1)OC(C)(C)[C@@H]1CCC(CO)=C[C@@H]21` [Example 11-OH-THC, 11-OH-THC], for which the “psychotropic side effects relative to THC” value in data set [2] was “three to seven”. The “time to tachycardia and psychological high” value in data set [3] is given as 3-5 minutes.
